# Experimental data taken from patent publication EP4722207A1, “OXOISOINDOLINYL-SUBSTITUTED TETRAHYDROPYRIMIDINEDIONE DERIVATIVE AND USE THEREOF” (Gluetacs Therapeutics (Shanghai) Co., Ltd., priority 2023, dated 2024).
# How the values were obtained:
# [1] = target: T1, IKZF1 (Homo sapiens, UniProt Q13422+Q96SW2); assay: Western-blot assay, substrate protein degradation in hPBMCs: IKZF1; type: cell-based; conditions: for IKZF1 substrate protein remaining %: compounds at 50 nM and 500 nM, 24 hours; for substrate protein remaining % IKZF1: 24 hours of compound treatment, 50 nM and 500 nM
# T1 construct: effects of the compounds of the present disclosure on the expression of target proteins in cells; endogenous in cells; host or cells: human PBMCs (hPBMCs)
# [2] = target: T2, IKZF2 (Homo sapiens, UniProt Q96SW2+Q9UKS7); assay: Western-blot assay, substrate protein degradation in hPBMCs: IKZF2; type: cell-based; conditions: for IKZF2 substrate protein remaining %: compounds at 50 nM and 500 nM, 24 hours; for substrate protein remaining % IKZF2: 24 hours of compound treatment, 50 nM and 500 nM
# T2 construct: effects of the compounds of the present disclosure on the expression of target proteins in cells; endogenous in cells; host or cells: human PBMCs (hPBMCs)
# T2 sequence (Q9UKS7 whole entry): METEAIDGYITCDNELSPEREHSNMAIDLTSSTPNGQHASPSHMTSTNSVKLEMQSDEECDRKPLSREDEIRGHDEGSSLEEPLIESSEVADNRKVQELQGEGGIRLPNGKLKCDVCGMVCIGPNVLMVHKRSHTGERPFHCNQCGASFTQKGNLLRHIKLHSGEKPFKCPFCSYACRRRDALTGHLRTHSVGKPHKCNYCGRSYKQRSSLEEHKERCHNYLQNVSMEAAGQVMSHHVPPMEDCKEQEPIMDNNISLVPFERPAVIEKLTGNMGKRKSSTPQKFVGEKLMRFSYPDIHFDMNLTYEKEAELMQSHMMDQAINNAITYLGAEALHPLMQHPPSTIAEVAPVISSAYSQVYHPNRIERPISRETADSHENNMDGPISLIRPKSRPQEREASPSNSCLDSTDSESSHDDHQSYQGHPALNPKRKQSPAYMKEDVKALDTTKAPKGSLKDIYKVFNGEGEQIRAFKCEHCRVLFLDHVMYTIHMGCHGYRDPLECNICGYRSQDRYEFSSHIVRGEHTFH
# T2 sequence (Q96SW2 whole entry): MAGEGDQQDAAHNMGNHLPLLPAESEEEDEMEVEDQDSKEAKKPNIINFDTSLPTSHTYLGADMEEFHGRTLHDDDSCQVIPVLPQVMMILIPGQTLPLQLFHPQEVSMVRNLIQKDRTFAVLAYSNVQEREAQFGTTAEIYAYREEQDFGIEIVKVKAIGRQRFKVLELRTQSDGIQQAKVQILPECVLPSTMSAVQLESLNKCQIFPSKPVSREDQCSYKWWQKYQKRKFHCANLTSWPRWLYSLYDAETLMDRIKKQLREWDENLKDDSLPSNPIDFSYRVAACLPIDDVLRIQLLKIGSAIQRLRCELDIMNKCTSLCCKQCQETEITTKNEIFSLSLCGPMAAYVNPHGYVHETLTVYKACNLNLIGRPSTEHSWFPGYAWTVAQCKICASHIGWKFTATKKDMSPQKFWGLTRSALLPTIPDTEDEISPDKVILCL
# T2 sequence (Q16531 whole entry partner): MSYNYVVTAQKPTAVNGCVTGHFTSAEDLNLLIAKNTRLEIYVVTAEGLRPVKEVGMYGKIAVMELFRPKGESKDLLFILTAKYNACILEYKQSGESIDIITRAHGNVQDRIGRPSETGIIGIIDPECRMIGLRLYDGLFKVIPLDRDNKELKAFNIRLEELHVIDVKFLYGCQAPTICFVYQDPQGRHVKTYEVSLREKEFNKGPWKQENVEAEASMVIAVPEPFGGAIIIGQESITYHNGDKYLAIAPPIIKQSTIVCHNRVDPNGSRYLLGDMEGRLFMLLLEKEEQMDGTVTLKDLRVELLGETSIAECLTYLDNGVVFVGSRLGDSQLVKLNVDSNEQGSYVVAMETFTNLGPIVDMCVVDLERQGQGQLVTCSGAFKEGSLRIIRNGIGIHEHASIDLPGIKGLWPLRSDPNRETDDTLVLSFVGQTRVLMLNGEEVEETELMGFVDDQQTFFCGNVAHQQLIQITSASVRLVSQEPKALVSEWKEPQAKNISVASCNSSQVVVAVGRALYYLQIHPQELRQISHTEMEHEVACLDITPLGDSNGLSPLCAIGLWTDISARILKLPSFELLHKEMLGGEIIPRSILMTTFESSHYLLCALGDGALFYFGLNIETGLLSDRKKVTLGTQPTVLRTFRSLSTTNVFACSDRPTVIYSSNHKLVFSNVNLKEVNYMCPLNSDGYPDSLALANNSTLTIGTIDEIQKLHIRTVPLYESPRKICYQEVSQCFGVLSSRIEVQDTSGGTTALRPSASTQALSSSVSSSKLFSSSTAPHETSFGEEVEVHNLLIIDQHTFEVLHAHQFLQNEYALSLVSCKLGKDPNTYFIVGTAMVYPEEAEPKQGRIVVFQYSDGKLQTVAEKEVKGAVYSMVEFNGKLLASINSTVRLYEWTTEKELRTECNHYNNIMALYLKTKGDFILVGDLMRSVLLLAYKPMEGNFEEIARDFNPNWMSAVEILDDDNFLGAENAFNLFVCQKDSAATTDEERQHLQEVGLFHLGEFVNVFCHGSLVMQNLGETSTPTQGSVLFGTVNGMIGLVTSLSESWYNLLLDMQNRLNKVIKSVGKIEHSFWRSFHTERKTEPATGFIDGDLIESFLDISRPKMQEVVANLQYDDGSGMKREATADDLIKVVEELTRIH
# [3] = target: T3, IKZF3 (Homo sapiens, UniProt Q96SW2+Q9UKT9); assay: Western-blot assay, substrate protein degradation in hPBMCs: IKZF3; type: cell-based; conditions: for IKZF3 substrate protein remaining %: compounds at 50 nM and 500 nM, 24 hours; for substrate protein remaining % IKZF3: 24 hours of compound treatment, 50 nM and 500 nM
# T3 construct: effects of the compounds of the present disclosure on the expression of target proteins in cells; endogenous in cells; host or cells: human PBMCs (hPBMCs)
# T3 sequence (Q9UKT9 whole entry): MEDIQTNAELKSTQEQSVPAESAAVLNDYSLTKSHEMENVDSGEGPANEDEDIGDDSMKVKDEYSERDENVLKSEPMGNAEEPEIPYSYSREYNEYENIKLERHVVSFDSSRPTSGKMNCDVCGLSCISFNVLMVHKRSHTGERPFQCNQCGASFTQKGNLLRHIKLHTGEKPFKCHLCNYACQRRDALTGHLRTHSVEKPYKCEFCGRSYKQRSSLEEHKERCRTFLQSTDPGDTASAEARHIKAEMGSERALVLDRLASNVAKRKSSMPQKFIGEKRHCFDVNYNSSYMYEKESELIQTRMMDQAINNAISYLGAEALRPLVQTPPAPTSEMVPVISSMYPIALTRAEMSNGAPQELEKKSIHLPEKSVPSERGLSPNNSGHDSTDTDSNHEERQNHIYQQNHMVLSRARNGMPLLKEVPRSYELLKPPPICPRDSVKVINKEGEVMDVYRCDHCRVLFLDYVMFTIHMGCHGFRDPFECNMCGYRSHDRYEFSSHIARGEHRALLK
# T3 sequence (Q96SW2 whole entry): as the sequence (Q96SW2 whole entry) above
# T3 sequence (Q16531 whole entry partner): as the sequence (Q16531 whole entry partner) above
# [4] = test system: MM.1S; assay: Cell viability assay (CellTiter-Meiluncell Luminescent), tumor cell proliferation, MM.1S; conditions: Homo sapiens, MM1.S, 96 h, read-out: inhibitory activity (IC50, nM) against tumor cells proliferation, MM.1S
# [5] = target: T4, GSPT1 (Homo sapiens, UniProt P15170+Q96SW2); assay: Western-blot assay, substrate protein degradation in hPBMCs: GSPT1; type: cell-based; conditions: for GSPT1 substrate protein remaining %: compounds at 50 nM and 500 nM, 24 hours; for substrate protein remaining % GSPT1: 24 hours of compound treatment, 50 nM and 500 nM
# T4 construct: effects of the compounds of the present disclosure on the expression of target proteins in cells; endogenous in cells; host or cells: human PBMCs (hPBMCs)
# T4 sequence (P15170 whole entry): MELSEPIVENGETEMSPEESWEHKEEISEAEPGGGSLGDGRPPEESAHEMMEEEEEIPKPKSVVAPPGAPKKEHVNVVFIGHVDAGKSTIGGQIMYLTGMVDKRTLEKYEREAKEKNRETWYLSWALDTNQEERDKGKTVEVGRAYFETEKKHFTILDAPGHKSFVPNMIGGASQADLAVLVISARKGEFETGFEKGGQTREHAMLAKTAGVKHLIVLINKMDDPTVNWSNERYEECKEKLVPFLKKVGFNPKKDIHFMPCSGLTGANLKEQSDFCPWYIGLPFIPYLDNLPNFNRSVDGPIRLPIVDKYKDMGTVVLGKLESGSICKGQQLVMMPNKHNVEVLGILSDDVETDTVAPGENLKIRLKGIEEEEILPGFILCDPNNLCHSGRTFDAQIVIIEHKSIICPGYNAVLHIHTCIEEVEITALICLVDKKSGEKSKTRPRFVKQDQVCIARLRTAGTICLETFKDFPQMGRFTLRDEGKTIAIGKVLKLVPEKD
# T4 sequence (Q96SW2 whole entry): as the sequence (Q96SW2 whole entry) above
# T4 sequence (Q16531 whole entry partner): as the sequence (Q16531 whole entry partner) above
# [6] = target: T5, CK1α (Homo sapiens, UniProt P48729+Q96SW2); assay: Western-blot assay, substrate protein degradation in hPBMCs: CK1α; type: cell-based; conditions: for CK1α substrate protein remaining %: compounds at 50 nM and 500 nM, 24 hours; for substrate protein remaining % CK1α: 24 hours of compound treatment, 50 nM and 500 nM
# T5 construct: effects of the compounds of the present disclosure on the expression of target proteins in cells; endogenous in cells; host or cells: human PBMCs (hPBMCs)
# T5 sequence (P48729 whole entry): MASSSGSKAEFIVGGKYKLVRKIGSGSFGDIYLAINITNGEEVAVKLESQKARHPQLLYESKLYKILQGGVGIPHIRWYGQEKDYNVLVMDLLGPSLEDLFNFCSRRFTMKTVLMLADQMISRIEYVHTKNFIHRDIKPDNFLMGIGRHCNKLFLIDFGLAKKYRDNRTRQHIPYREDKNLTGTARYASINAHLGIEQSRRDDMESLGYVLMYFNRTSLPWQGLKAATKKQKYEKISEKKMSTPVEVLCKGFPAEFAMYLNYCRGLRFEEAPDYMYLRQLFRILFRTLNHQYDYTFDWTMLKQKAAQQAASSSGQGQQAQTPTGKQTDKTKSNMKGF
# T5 sequence (Q96SW2 whole entry): as the sequence (Q96SW2 whole entry) above
# T5 sequence (Q16531 whole entry partner): as the sequence (Q16531 whole entry partner) above
# [7] = target: T6, WEE1 (Homo sapiens, UniProt P30291+Q96SW2); assay: Western-blot assay, substrate protein degradation in hPBMCs: WEE1; type: cell-based; conditions: for WEE1 substrate protein remaining %: compounds at 50 nM and 500 nM, 24 hours; for substrate protein remaining % WEE1: 24 hours of compound treatment, 50 nM and 500 nM
# T6 construct: effects of the compounds of the present disclosure on the expression of target proteins in cells; endogenous in cells; host or cells: human PBMCs (hPBMCs)
# T6 sequence (P30291 whole entry): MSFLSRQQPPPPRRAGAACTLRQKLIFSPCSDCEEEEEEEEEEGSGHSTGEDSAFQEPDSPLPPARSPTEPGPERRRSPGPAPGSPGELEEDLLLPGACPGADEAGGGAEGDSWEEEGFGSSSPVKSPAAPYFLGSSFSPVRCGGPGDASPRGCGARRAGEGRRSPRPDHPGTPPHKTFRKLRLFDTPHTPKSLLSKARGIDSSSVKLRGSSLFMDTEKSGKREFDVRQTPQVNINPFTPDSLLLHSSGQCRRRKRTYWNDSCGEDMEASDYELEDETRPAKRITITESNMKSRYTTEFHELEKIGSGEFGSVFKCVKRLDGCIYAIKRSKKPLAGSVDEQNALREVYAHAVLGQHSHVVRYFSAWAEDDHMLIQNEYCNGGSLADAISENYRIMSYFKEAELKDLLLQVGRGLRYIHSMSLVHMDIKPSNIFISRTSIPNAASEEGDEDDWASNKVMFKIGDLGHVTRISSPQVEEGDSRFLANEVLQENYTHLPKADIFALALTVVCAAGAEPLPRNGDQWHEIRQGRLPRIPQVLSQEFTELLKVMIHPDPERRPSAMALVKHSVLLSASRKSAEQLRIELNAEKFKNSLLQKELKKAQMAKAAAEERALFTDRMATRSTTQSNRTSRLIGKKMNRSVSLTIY
# T6 sequence (Q96SW2 whole entry): as the sequence (Q96SW2 whole entry) above
# T6 sequence (Q16531 whole entry partner): as the sequence (Q16531 whole entry partner) above
# [8] = test system: MV-4-11; assay: Cell viability assay (CellTiter-Meiluncell Luminescent), tumor cell proliferation, MV-4-11; conditions: Homo sapiens, MV4-11, 96 h; for inhibition at 0.01 µM: read-out: Inhibition Rate at 10 nM (%); for inhibition at 0.5 µM: read-out: Inhibition Rate at 500 nM (%)
# [9] = test system: H292; assay: Cell viability assay (CellTiter-Meiluncell Luminescent), tumor cell proliferation, H292; conditions: Homo sapiens, NCI-H292, 96 h; for inhibition at 0.01 µM: read-out: Inhibition Rate at 10 nM (%); for inhibition at 0.5 µM: read-out: Inhibition Rate at 500 nM (%)
# [10] = test system: MDA-MB-231; assay: Cell viability assay (CellTiter-Meiluncell Luminescent), tumor cell proliferation, MDA-MB-231; conditions: Homo sapiens, MDA-MB-231, 96 h; for inhibition at 0.01 µM: read-out: Inhibition Rate at 10 nM (%); for inhibition at 0.5 µM: read-out: Inhibition Rate at 500 nM (%)
SMILES,IKZF1 substrate protein remaining % [1],IKZF2 substrate protein remaining % [2],IKZF3 substrate protein remaining % [3],IC50 [4] [nM],GSPT1 substrate protein remaining % [5],CK1α substrate protein remaining % [6],WEE1 substrate protein remaining % [7],inhibition at 0.01 µM [8] [%],inhibition at 0.5 µM [8] [%],substrate protein remaining % IKZF1 [1],substrate protein remaining % IKZF2 [2],substrate protein remaining % IKZF3 [3],substrate protein remaining % GSPT1 [5],substrate protein remaining % CK1α [6],inhibition at 0.01 µM [9] [%],inhibition at 0.5 µM [9] [%],inhibition at 0.01 µM [10] [%],inhibition at 0.5 µM [10] [%],substrate protein remaining % WEE1 [7]
"O=C1CCN(N2Cc3cc(CN4CC(N5CCc6cc(F)ccc65)C4)ccc3C2=O)C(=O)N1 [GT-05169, 1-(5-((3-(5-fluoroindolin-1-yl)azetidin-1-yl)methyl)-1-oxoisoindolin-2-yl)dihydropyrimidine-2,4(1H,3H)-dione]","B (""B"" is defined as 80%< substrate protein remaining %≤ 100%)","A (""A"" is defined as 0% ≤ substrate protein remaining % ≤ 80%)","A (""A"" is defined as 0% ≤ substrate protein remaining % ≤ 80%)",100 to 300,"A (""A"" is defined as 0% ≤ substrate protein remaining % ≤ 80%)","B (""B"" is defined as 80%< substrate protein remaining %≤ 100%)","B (""B"" is defined as 80%< substrate protein remaining %≤ 100%)",–,–,–,–,–,–,–,–,–,–,–,–
"O=C1CCN(N2Cc3cc(CN4CCN(c5ncnc6sc(Br)cc56)CC4)ccc3C2=O)C(=O)N1 [GT-08063, 1-(5-((4-(6-bromothieno[2,3-d]pyrimidin-4-yl)piperazin-1-yl)methyl)-1-oxoisoindolin-2-yl)dihydropyrimidine-2,4(1H,3H)-dione]",–,–,–,–,–,–,–,18 to 25,5 to 10,B (80%< substrate protein remaining %≤ 100%),A (0% ≤ substrate protein remaining % ≤ 80%),A (0% ≤ substrate protein remaining % ≤ 80%),B (80%< substrate protein remaining %≤ 100%),B (80%< substrate protein remaining %≤ 100%),20 to 40,20 to 40,15 to 18,15 to 18,B (80%< substrate protein remaining %≤ 100%)
"Cc1nc(C2CCN(Cc3ccc4c(c3)C(=O)N(N3CCC(=O)NC3=O)C4=O)CC2)c2c(-c3ccccc3)csc2n1 [GT-08110, 2-(2,4-dioxotetrahydropyrimidin-1(2H)-yl)-5-((4-(2-methyl-5-phenylthieno[2,3-d]pyrimidin-4-yl)piperidin-1-yl)methyl)isoindoline-1,3-dione]",–,–,–,–,–,–,–,10 to 18,18 to 25,A (0% ≤ substrate protein remaining % ≤ 80%),A (0% ≤ substrate protein remaining % ≤ 80%),A (0% ≤ substrate protein remaining % ≤ 80%),A (0% ≤ substrate protein remaining % ≤ 80%),A (0% ≤ substrate protein remaining % ≤ 80%),20 to 40,10 to 15,25 to 40,15 to 18,A (0% ≤ substrate protein remaining % ≤ 80%)
"Cc1ccc(Sc2ccccc2N2CCN(Cc3ccc4c(c3)CN(N3CCC(=O)NC3=O)C4=O)CC2)c(C)c1 [GT-04867, 1-(5-((4-(2-((2,4-dimethylphenyl)thio)phenyl)piperazin-1-yl)methyl)-1-oxoisoindolin-2-yl)dihydropyrimidine-2,4(1H,3H)-dione]","A (""A"" is defined as 0% ≤ substrate protein remaining % ≤ 80%)","B (""B"" is defined as 80%< substrate protein remaining %≤ 100%)","B (""B"" is defined as 80%< substrate protein remaining %≤ 100%)",500 to 1000,"A (""A"" is defined as 0% ≤ substrate protein remaining % ≤ 80%)","B (""B"" is defined as 80%< substrate protein remaining %≤ 100%)","B (""B"" is defined as 80%< substrate protein remaining %≤ 100%)",–,–,–,–,–,–,–,–,–,–,–,–
